Source: US7799821B2, “Therapeutic compounds” (Allergan, Inc., priority 2004, dated 2010)
pEC50, pIC50: −log10 of the molar value. Where two headings read alike, the source gives them in different places.

How the values were obtained:
[1] = target: T1, hEP4/Gqs5 (Homo sapiens, UniProt P35408); experiment: FLIPR calcium signal, hEP4; assay type: cell-based
T1 construct: expressed in transfected cells; host or cells: HEK-293(EBNA)
Description: (§1) HEK-293(EBNA) cells, stably expressing one type or subtype of recombinant human prostaglandin receptors (prostaglandin receptors expressed: hDP/Gqs5; hEP1; hEP2/Gqs5; hEP3A/Gqi5; hEP4/Gqs5; hFP; hIP; hTP), were cultured in 100 mm culture dishes in high-glucose DMEM medium containing 10% fetal bovine serum, 2 mM 1-glutamine, 250 μg/ml geneticin (G418) and 200 μg/ml hygromycin B as selection markers, and 100 units/ml penicillin G, 100 μg/ml streptomycin and 0.25 μg/ml amphotericin B. • (b) Calcium Signal Studies on the FLIPR™
(§2) Cells were seeded at a density of 5×10^4 cells per well in Biocoat® Poly-D-lysine-coated black-wall, clear-bottom 96-well plates (Becton-Dickinson) and allowed to attach overnight in an incubator at 37° C. Cells were then washed two times with HBSS-HEPES buffer (Hanks Balanced Salt Solution without bicarbonate and phenol red, 20 mM HEPES, pH 7.4) using a Denley Cellwash plate washer (Labsystems). After 45 minutes of dye-loading in the dark, using the calcium-sensitive dye Fluo-4 AM at a final concentration of 2 μM, plates were washed four times with HBSS-HEPES buffer to remove excess dye leaving 100 μl in each well. Plates were re-equilibrated to 37° C. for a few minutes.
(§3) Cells were excited with an Argon laser at 488 nm, and emission was measured through a 510-570 nm bandwidth emission filter (FLIPR™, Molecular Devices, Sunnyvale, Calif.). Drug solution was added in a 50 μl volume to each well to give the desired final concentration. The peak increase in fluorescence intensity was recorded for each well. On each plate, four wells each served as negative (HBSS-HEPES buffer) and positive controls (standard agonists: BW245C (hDP); PGE2 (hEP1; hEP2/Gqs5; hEP3A/Gqi5; hEP4/Gqs5); PGF2α (hFP); carbacyclin (hIP); U-46619 (hTP), depending on receptor). The peak fluorescence change in each drug-containing well was then expressed relative to the controls.
(§4) Compounds were tested in a high-throughput (HTS) or concentration-response (CoRe) format. In the HTS format, forty-four compounds per plate were examined in duplicates at a concentration of 10^−5 M. To generate concentration-response curves, four compounds per plate were tested in duplicates in a concentration range between 10^−5 and 10^−11 M. The duplicate values were averaged. In either, HTS or CoRe format each compound was tested on at least 3 separate plates using cells from different passages to give an n≧3.

[2] = target: T2, hEP2/Gqs5 (Homo sapiens, UniProt P43116); experiment: FLIPR calcium signal, hEP2; assay type: cell-based
T2 construct: expressed in transfected cells; host or cells: HEK-293(EBNA)
Description: as §1, §2, §3, §4

[3] = target: T3, human EP2 receptors (Homo sapiens, UniProt P43116); experiment: Competition radioligand binding ([3H]PGE2), EP2; conditions: read-out: BINDING IC50 HEP2
T3 construct: expressed in transfected cells; host or cells: HEK 293
Description: Competition binding experiments were performed in a medium containing Hank's balanced salt solution, […], membranes (˜60 μg protein) or 2×10^5 cells from HEK 293 cells stably expressing human EP2 receptors, [^3H]PGE2 (10 nM) and various concentrations of test compounds in a total volume of 300 μl. Reaction mixtures were incubated at 23° C. for 60 min, and were filtered over Whatman GF/B filters under vacuum. Filters were washed three times with 5 ml ice-cold buffer containing 50 mM Tris/HCl (pH 7.3). Non-specific binding was estimated in the presence of excess unlabeled PGE2 (10 μM). Binding data fitted to the binding model for a single class of binding sites, using nonlinear regression analysis. IC50 values thus obtained were converted to Ki using the equation of Ki=(IC50/(1+[L]/KD) where [L] represents PGE2 concentration (10 nM) and KD the dissociation constant for [^3H]PGE2 at human EP2 receptors (40 nM).
HEK-293 cells stably expressing the human or feline FP receptor, or EP1, EP2, or EP4 receptors were washed with TME buffer, scraped from the bottom of the flasks, and homogenized for 30 sec using a Brinkman PT 10/35 polytron. TME buffer was added to achieve a final 40 ml volume in the centrifuge tubes (the composition of TME is 100 mM TRIS base, 20 mM MgCl2, […]; 10N HCl is added to achieve a pH of 7.4).
The cell homogenate was centrifuged at 19000 r.p.m. for 20 min at 4° C. using a Beckman Ti-60 rotor. The resultant pellet was resuspended in TME buffer to give a final 1 mg/ml protein concentration, as determined by Biorad assay. Radioligand binding competition assays vs. [^3H-]17 —phenyl PGF2α (5 nM) were performed in a 100 μl volume for 60 min. Binding reactions were started by adding plasma membrane fraction. The reaction was terminated by the addition of 4 ml ice-cold TRIS-HCl buffer and rapid filtration through glass fiber GF/B filters using a Brandel cell harvester. The filters were washed 3 times with ice-cold buffer and oven dried for one hour.
[^3H-] PGE2 (specific activity 180 Ci mmol) was used as the radioligand for EP receptors. [^3H] 17-phenyl PGF2α was employed for FP receptor binding studies. Binding studies employing EP1, EP2, EP4 and FP receptors were performed in duplicate in at least three separate experiments. A 200 μl assay volume was used. Incubations were for 60 min at 25° C. and were terminated by the addition of 4 ml of ice-cold 50 mM TRIS-HCl, followed by rapid filtration through Whatman GF/B filters and three additional 4 ml washes in a cell harvester (Brandel). Competition studies were performed using a final concentration of 5 nM [^3H]—PGE2, or 5 nM [^3H] 17-phenyl PGF2α and non-specific binding determined with 10^−5M of unlabeled PGE2, or 17-phenyl PGF2α, according to receptor subtype studied.

[4] = FLIPR Ca2+ signal, HEK-293(EBNA), read-out: FUNCTIONAL EC50 HEP4
[5] = FLIPR Ca2+ signal, HEK-293(EBNA), read-out: FUNCTIONAL EC50 HEP2
[6] = read-out: FUNCTIONAL Ca2+ EC50 HEP2
[7] = read-out: FUNCTIONAL Ca2+ EC50 HEP4

T2 sequence (P43116 whole entry): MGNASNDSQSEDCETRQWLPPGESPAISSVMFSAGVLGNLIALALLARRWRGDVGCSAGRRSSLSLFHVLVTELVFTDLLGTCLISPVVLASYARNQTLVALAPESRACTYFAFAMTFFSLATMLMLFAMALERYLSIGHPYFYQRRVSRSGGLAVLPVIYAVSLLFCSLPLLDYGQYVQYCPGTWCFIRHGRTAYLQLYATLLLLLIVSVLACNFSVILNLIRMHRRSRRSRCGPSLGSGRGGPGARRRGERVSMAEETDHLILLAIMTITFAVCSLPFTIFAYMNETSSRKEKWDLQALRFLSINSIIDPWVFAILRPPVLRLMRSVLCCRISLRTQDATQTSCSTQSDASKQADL
T3 sequence (P43116 whole entry): as above
T1 sequence (P35408 whole entry): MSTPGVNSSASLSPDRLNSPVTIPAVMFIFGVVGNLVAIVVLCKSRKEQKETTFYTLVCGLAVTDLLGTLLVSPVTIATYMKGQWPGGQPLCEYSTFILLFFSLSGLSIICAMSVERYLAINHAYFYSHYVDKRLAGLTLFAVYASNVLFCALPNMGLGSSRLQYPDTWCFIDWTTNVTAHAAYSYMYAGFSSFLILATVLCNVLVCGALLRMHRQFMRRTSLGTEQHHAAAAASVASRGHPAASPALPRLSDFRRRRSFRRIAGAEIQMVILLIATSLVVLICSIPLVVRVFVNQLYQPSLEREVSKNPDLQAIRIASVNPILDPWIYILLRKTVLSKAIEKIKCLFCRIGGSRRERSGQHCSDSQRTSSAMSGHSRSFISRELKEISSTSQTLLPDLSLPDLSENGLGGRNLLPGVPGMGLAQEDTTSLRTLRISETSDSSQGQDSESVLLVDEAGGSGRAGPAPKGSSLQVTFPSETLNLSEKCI

Row | SMILES | pEC50 [1, 4] | pEC50 [2, 5] | also measured
1 | COC(=O)CCCCCC[C@H]1C(=O)C[C@@H](O)[C@@H]1c1ccc(C)cc1 |  | < 5.00 | 
2 | O=C(O)CCC/C=C\C[C@@H]1[C@@H](c2ccc(CO)cc2)[C@H](O)C[C@H]1Cl |  |  | pIC50 [3]: 4.88
3 | COC(=O)CCCCCC[C@@H]1[C@@H](c2ccc(CO)cc2)[C@H](O)C[C@H]1Cl | < 5.00 |  | 
4 | O=C(O)CCCCCC[C@@H]1[C@@H](c2ccc(CO)cc2)[C@H](O)C[C@H]1Cl |  | < 5.00 | 
5 | COC(=O)CCCCCC[C@@H]1[C@@H](c2ccc(C(O)C(C)C)cc2)[C@H](O)C[C@H]1Cl (some centres unmarked) | < 5.00 | < 5.00 | 
6 | COC(=O)CCC/C=C\C[C@H]1C(=O)CC[C@@H]1c1ccc([C@H](O)C2CCCCC2)cc1 |  |  | pEC50 [2, 6]: < 5.00
7 | O=C(O)CCCCCC[C@H]1C(=O)CC[C@@H]1c1ccc(C2(O)CCC2)cc1 |  |  | pEC50 [2, 6]: < 5.00
8 | CCCCCC(O)c1ccc([C@H]2CCC(=O)[C@@H]2CCCc2ccc(C(=O)O)s2)cc1 (some centres unmarked) |  |  | pEC50 [1, 7]: < 5.00
9 | COC(=O)CCCCCC[C@@H]1[C@@H](c2ccc(C(O)C(C)(C)C)cc2)[C@H](O)C[C@H]1Cl (some centres unmarked) [drawing 131] | < 5.00 | 5.30 | 
10 | COC(=O)CCCCCC[C@@H]1[C@@H](c2ccc(C(O)C(C)(C)C)cc2)[C@H](O)C[C@H]1Cl (some centres unmarked) [drawing 133] | < 5.00 | 5.18 | 
11 | CCCC1([C@@H](O)c2ccc([C@H]3CCC(=O)[C@@H]3C/C=C\CCCC(=O)O)cc2)CCC1 [drawing 194] |  |  | pEC50 [1, 7]: < 5.00; pEC50 [2, 6]: < 5.00

Second part, led by results:

Row | pEC50 [1, 4] | pEC50 [2, 5] | SMILES | also measured
12 | < 5.00 | 6.15 | CC(C)(CO)c1ccc([C@@H]2[C@@H](CCCCCCC(=O)O)[C@H](Cl)C[C@H]2O)cc1 | pIC50 [3]: 5.05
13 |  | < 5.00 | COC(=O)CCC/C=C\C[C@@H]1[C@@H](c2ccc(CO)cc2)[C@H](O)C[C@H]1Cl | 
14 | < 5.00 | 6.11 | CC(C)(C)C(O)c1ccc([C@@H]2[C@@H](C/C=C\CCCC(=O)O)[C@H](Cl)C[C@H]2O)cc1 (some centres unmarked) | pIC50 [3]: 5.81
15 | < 5.00 | < 5.00 | COC(=O)CCC/C=C\C[C@@H]1[C@@H](c2ccc(C(O)C(C)C)cc2)[C@H](O)C[C@H]1Cl (some centres unmarked) | 
16 |  | 6.41 | O=C(O)CCC/C=C\C[C@@H]1[C@@H](c2ccc(C(O)C3CCCCC3)cc2)[C@H](O)C[C@H]1Cl (some centres unmarked) [drawing 77] | 
17 | < 5.00 |  | COC(=O)CCC/C=C\C[C@@H]1[C@@H](c2ccc(C(C)(C)CO)cc2)[C@H](O)C[C@H]1Cl [drawing 113] | 
18 |  | < 5.00 | CC(C)(CO)c1ccc([C@@H]2[C@@H](C/C=C\CCCC(=O)O)[C@H](Cl)C[C@H]2O)cc1 [drawing 114] | 
19 | 4.58 | < 5.00 | COC(=O)CCCCCC[C@@H]1[C@@H](c2ccc(C(C)(C)CO)cc2)[C@H](O)C[C@H]1Cl [drawing 115] | 
20 |  | < 5.00 | COC(=O)CCC/C=C\C[C@@H]1[C@@H](c2ccc(C(C)(C)CO)cc2)[C@H](O)C[C@H]1Cl [drawing 117] | pIC50 [3]: 4.31
21 |  | 6.76 | CC(C)(CO)c1ccc([C@@H]2[C@@H](C/C=C\CCCC(=O)O)[C@H](Cl)C[C@H]2O)cc1 [drawing 118] | pIC50 [3]: 5.38
22 | < 5.00 | < 5.00 | COC(=O)CCCCCC[C@@H]1[C@@H](c2ccc(C(C)(C)CO)cc2)[C@H](O)C[C@H]1Cl [drawing 119] | 
